Source: patent US20050234046A1 (Kalypsys, Inc., priority 2004, published 2005)

Columns and labels:
Experiment in all cases: Transient transfection (transactivation) assay in CV-1 cells, GAL4-PPAR chimera, luciferase reporter
Assay type in all cases: cell-based
PPAR alpha = biological target: T1, PPAR alpha (Homo sapiens, UniProt Q07869)
T1 construct: expressed in transfected cells; host or cells: CV-1 cells
T1 sequence (Q07869 239-466 limits assumed): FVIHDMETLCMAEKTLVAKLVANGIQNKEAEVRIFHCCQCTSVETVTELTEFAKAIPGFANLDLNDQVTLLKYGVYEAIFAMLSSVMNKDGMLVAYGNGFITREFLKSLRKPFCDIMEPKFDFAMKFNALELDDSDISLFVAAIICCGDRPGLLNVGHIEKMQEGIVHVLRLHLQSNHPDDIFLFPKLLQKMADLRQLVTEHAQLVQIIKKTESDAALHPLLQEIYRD
In short: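 EC50 and efficacy come from a luciferase read-out after 20-24 hours of compound exposure (vehicle 1% DMSO) in transiently transfected CV-1 cells. These cells express a GAL4-PPAR ligand-binding-domain chimera plus a reporter with four or five GAL4 binding sites, and are kept in phenol-red free DME with 5% delipidated calf serum.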

PPAR gamma = biological target: T2, PPAR gamma (Homo sapiens, UniProt P37231)
T2 construct: expressed in transfected cells; host or cells: CV-1 cells
T2 sequence (P37231 238-503 limits assumed): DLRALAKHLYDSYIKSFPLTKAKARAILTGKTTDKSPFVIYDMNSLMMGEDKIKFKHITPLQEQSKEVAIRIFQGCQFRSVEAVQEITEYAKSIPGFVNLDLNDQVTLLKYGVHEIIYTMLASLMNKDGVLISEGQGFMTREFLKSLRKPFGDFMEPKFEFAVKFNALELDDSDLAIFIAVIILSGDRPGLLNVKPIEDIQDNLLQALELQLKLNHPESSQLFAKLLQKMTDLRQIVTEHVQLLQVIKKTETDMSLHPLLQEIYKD

PPAR delta = biological target: T3, PPAR delta (Homo sapiens, UniProt Q03181)
T3 construct: expressed in transfected cells; host or cells: CV-1 cells
T3 sequence (Q03181 211-439 limits assumed): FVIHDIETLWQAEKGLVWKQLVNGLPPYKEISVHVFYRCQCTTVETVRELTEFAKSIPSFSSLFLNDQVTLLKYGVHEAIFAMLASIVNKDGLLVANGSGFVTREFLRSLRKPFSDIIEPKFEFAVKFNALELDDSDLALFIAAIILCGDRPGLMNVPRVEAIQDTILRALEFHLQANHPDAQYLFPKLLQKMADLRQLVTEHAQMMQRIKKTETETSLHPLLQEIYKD

Structure (SMILES) | EC50 (PPAR alpha) | EC50 (PPAR gamma) | EC50 (PPAR delta)
Cc1ccc(S(=O)(=O)N2CCN(c3ccc4occc4c3)CC2C)cc1CC(=O)O (stereo not drawn) [Example 73, [5-(4-Benzofuran-5-yl-2-methyl-piperazine-1-sulfonyl)-2-methyl-phenyl]-acetic acid] | > 100 µM | > 100 µM | 5 to 100 µM
Cc1ccc(S(=O)(=O)N2CCN(c3ccc(C(F)(F)F)nn3)CC2)cc1CC(=O)O [Example 74] | > 100 µM | > 100 µM | 5 to 100 µM
COc1ccc(S(=O)(=O)N2CCN(c3ccc(C(F)(F)F)cc3)CC2)cc1CC(=O)O [Example 75, {2-Methoxy-5-[4-(4-trifluoromethyl-phenyl)-piperazine-1-sulfonyl]-phenyl}-acetic acid] | > 100 µM | 5 to 100 µM | < 5 µM
COc1ccc(S(=O)(=O)N2CCN(c3ccc(C(F)(F)F)cn3)CC2)cc1CC(=O)O [Example 76, {2-Methoxy-5-[4-(5-trifluoromethyl-pyridin-2-yl)-piperazine-1-sulfonyl]-phenyl}-acetic acid] | > 100 µM | 5 to 100 µM | < 5 µM
COc1ccc(S(=O)(=O)N2CCN(c3ccc(C(F)(F)F)cn3)CC2C)cc1CC(=O)O (stereo not drawn) [Example 77, {2-Methoxy-5-[2-methyl-4-(5-trifluoromethyl-pyridin-2-yl)-piperazine-1-sulfonyl]-phenyl}-acetic acid] | > 100 µM | 5 to 100 µM | < 5 µM
COc1ccc(S(=O)(=O)N2[C@H](C)CN(c3ccc(C(F)(F)F)cn3)C[C@@H]2C)cc1CC(=O)O [Example 78, {5-[2,6-Dimethyl-4-(5-trifluoromethyl-pyridin-2-yl)-piperazine-1-sulfonyl]-2-methoxy-phenyl}-acetic acid] | > 100 µM | > 100 µM | < 5 µM
COc1ccc(CC(=O)O)cc1S(=O)(=O)N1CCN(c2ccc(C(F)(F)F)cc2)CC1 [Example 79, {4-Methoxy-3-[4-(4-trifluoromethyl-phenyl)-piperazine-1-sulfonyl]-phenyl}-acetic acid] | > 100 µM | 5 to 100 µM | < 5 µM

Next, values leading:

EC50 (PPAR alpha) | EC50 (PPAR gamma) | EC50 (PPAR delta) | Structure (SMILES)
> 100 µM | 5 to 100 µM | < 5 µM | Cc1ccc(S(=O)(=O)N2CCN(c3ncc(F)cn3)CC2)cc1CC(=O)O [Example 63, {5-[4-(5-Fluoro-pyrimidin-2-yl)-piperazine-1-sulfonyl]-2-methyl-phenyl}-acetic acid]
> 100 µM | 5 to 100 µM | > 100 µM | Cc1ccc(S(=O)(=O)N2CCN(c3nc(Cl)ncc3F)CC2)cc1CC(=O)O [Example 64, {5-[4-(2-Chloro-5-fluoro-pyrimidin-4-yl)-piperazine-1-sulfonyl]-2-methyl-phenyl}-acetic acid]
5 to 100 µM | > 100 µM | < 5 µM | Cc1ccc(S(=O)(=O)N2CC=C(c3ccc(C(F)(F)F)cn3)CC2)cc1CC(=O)O [Example 66, [2-Methyl-5-(5-trifluoromethyl-3′,6′-dihydro-2^1H-[2,4′]bipyridinyl-1′-sulfonyl)-phenyl]-acetic acid]
< 5 µM | 5 to 100 µM | < 5 µM | Cc1ccc(S(=O)(=O)N2[C@H](C)CN(c3ccc(C(F)(F)F)c(F)c3)C[C@@H]2C)cc1CC(=O)O [Example 68, {5-[4-(3-Fluoro-4-trifluoromethyl-phenyl)-2,6-dimethyl-piperazine-1-sulfonyl]-2-methyl-phenyl}-acetic acid]
< 5 µM | < 5 µM | < 5 µM | Cc1ccc(S(=O)(=O)N2CCN(c3ccc(C(F)(F)F)cn3)[C@@H](C)C2)cc1CC(=O)O [Example 70, {2-Methyl-5-[(S)-3-methyl-4-(5-trifluoromethyl-pyridin-2-yl)-piperazine-1-sulfonyl]-phenyl}-acetic acid]
> 100 µM | > 100 µM | 5 to 100 µM | Cc1ccc(S(=O)(=O)N2C[C@@H](C)N(c3ccc(C(F)(F)F)cn3)[C@@H](C)C2)cc1CC(=O)O [Example 72, {2-Methyl-5-[3,5-dimethyl-4-(5-trifluoromethyl-pyridin-2-yl)-piperazine-1-sulfonyl]-phenyl}-acetic acid]
